Laboratory results taken from the NIST ThermoML archive (doi:10.1016/j.fluid.2010.08.022).

Settings: 101.33 kPa; for speed of sound: Sing-around technique in a fixed-path interferometer; for mass density: Vibrating tube method; for viscosity: 368.15 K, Visco Elite L rheometer

CCCCCCCC/C=C\CCCCCCCC(=O)[O-].OCC[NH2+]CCO [bis(2-hydroxyethyl)ammonium oleate]
Liquid crystal of unknown type
Settings | mass density [kg/m3] | speed of sound [m/s]
310.91 K | 956.801 | 1479.3
311.16 K | 956.637 | 1478.5
311.41 K | 956.474 | 1477.7
311.66 K | 956.311 | 1476.9
311.91 K | 956.146 | 1476.1
312.16 K | 955.984 | 1475.3
312.41 K | 955.821 | 1474.5
312.66 K | 955.658 | 1473.7
312.91 K | 955.495 | 1472.9
313.16 K | 955.331 | 1472.1
313.4 K | 955.169 | 1471.3
313.66 K | 955.006 | 1470.5
313.91 K | 954.842 | 1469.7
314.16 K | 954.679 | 1468.9
314.41 K | 954.514 | 1468.2
314.66 K | 954.352 | 1467.4
314.91 K | 954.186 | 1466.6
315.16 K | 954.024 | 1465.8
315.41 K | 953.862 | 1465
315.65 K | 953.699 | 1464.2
315.91 K | 953.533 | 1463.4
316.16 K | 953.369 | 1462.7
316.41 K | 953.207 | 1461.9
316.66 K | 953.043 | 1461.1
316.91 K | 952.88 | 1460.3
317.16 K | 952.716 | 1459.5
317.41 K | 952.551 | 1458.8
317.66 K | 952.388 | 1458
317.91 K | 952.225 | 1457.2
318.16 K | 952.061 | 1456.4
318.41 K | 951.897 | 1455.6
318.66 K | 951.733 | 1454.9
318.91 K | 951.57 | 1454.1
319.16 K | 951.406 | 1453.3
319.41 K | 951.243 | 1452.5
319.66 K | 951.078 | 1451.7
319.91 K | 950.913 | 1451
320.16 K | 950.75 | 1450.2
320.41 K | 950.587 | 1449.4
320.66 K | 950.422 | 1448.6
320.91 K | 950.258 | 1447.8
321.16 K | 950.094 | 1447.1
321.41 K | 949.931 | 1446.3
321.66 K | 949.766 | 1445.5
321.91 K | 949.603 | 1444.7
322.16 K | 949.437 | 1444
322.41 K | 949.275 | 1443.2
322.65 K | 949.109 | 1442.4
322.91 K | 948.946 | 1441.6
323.16 K | 948.781 | 1440.8
323.41 K | 948.617 | 1440.1
323.66 K | 948.452 | 1439.3
323.91 K | 948.289 | 1438.5
324.16 K | 948.125 | 1437.8
324.41 K | 947.96 | 1437
324.66 K | 947.796 | 1436.2
324.9 K | 947.631 | 1435.4
325.16 K | 947.466 | 1434.7
325.41 K | 947.302 | 1433.9
325.66 K | 947.136 | 1433.2
325.91 K | 946.972 | 1432.4
326.16 K | 946.806 | 1431.6
326.41 K | 946.644 | 1430.8
326.66 K | 946.479 | 1430.1
326.91 K | 946.315 | 1429.3
327.16 K | 946.149 | 1428.5
327.41 K | 945.984 | 1427.8
327.66 K | 945.82 | 1427
327.91 K | 945.656 | 1426.2
328.16 K | 945.489 | 1425.5
328.41 K | 945.323 | 1424.7
328.66 K | 945.159 | 1423.9
328.91 K | 944.994 | 1423.2
329.16 K | 944.829 | 1422.4
329.41 K | 944.663 | 1421.6
329.66 K | 944.498 | 1420.8
329.91 K | 944.332 | 1420.1
330.16 K | 944.168 | 1419.3
330.41 K | 944.002 | 1418.5
330.66 K | 943.835 | 1417.8
330.91 K | 943.671 | 1417
331.16 K | 943.506 | 1416.3
331.4 K | 943.341 | 1415.5
331.66 K | 943.175 | 1414.7
331.91 K | 943.009 | 1414
332.16 K | 942.844 | 1413.2
332.41 K | 942.679 | 1412.5
332.66 K | 942.512 | 1411.7
332.91 K | 942.347 | 1410.9
333.16 K | 942.18 | 1410.2
333.41 K | 942.013 | 1409.4
333.66 K | 941.847 | 1408.7
333.91 K | 941.682 | 1407.9
334.16 K | 941.516 | 1407.2
334.41 K | 941.349 | 1406.4
334.66 K | 941.183 | 1405.6
334.91 K | 941.018 | 1404.9
335.16 K | 940.851 | 1404.1
335.41 K | 940.685 | 1403.4
335.66 K | 940.519 | 1402.6
335.91 K | 940.352 | 1401.8
336.16 K | 940.185 | 1401.1
336.41 K | 940.019 | 1400.3
336.66 K | 939.852 | 1399.6
336.91 K | 939.686 | 1398.8
337.16 K | 939.519 | 1398
337.4 K | 939.352 | 1397.3
337.66 K | 939.185 | 1396.5
337.91 K | 939.017 | 1395.8
338.16 K | 938.852 | 1395
338.41 K | 938.684 | 1394.3
338.66 K | 938.517 | 1393.5
338.91 K | 938.351 | 1392.8
339.16 K | 938.182 | 1392
339.41 K | 938.014 | 1391.2
339.66 K | 937.846 | 1390.5
339.91 K | 937.68 | 1389.7
340.15 K | 937.513 | 1389
340.41 K | 937.345 | 1388.2
340.66 K | 937.177 | 1387.5
340.91 K | 937.009 | 1386.7
341.16 K | 936.844 | 1386
341.41 K | 936.674 | 1385.2
341.65 K | 936.507 | 1384.5
341.91 K | 936.339 | 1383.8
342.16 K | 936.171 | 1383
342.41 K | 936.003 | 1382.3
342.66 K | 935.836 | 1381.5
342.9 K | 935.668 | 1380.8
343.15 K | 935.491 | 1380.1

Settings | viscosity [mPa·s]
Liquid | 37.2
Liquid crystal of unknown type | 37.2
